Test results published in the supplement of paper PMC4862054.

How the values were obtained:
Details in all cases: incubation time: 72 h
BT-474 [1] = test: normalised response (% of control), CellTox Green; higher = less cell death (100 = DMSO, 0 = benzethonium chloride kill control)
In short: (§1)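 CellTox Green fluorescence (485/520 nm) and, after 10 min at room temperature, CellTiter-Glo luminescence were read from breast cancer cell lines incubated 72 h in 384-well plates. Cells were seeded as 20 µl suspension onto compound at 5 concentrations in 10-fold steps over a 10,000-fold range chosen per compound. Each plate was normalised to 0.1 % DMSO (100) and a positive kill control (0). Values are normalised signals, one per concentration.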

BT-549 [2] = test: as above
In short: as §1

CAL-120 [3] = test: as above
In short: as §1

CAL-148 [4] = test: as above
In short: as §1

CAL-51 [5] = test: as above
In short: as §1

CAL-85-1 [6] = test: as above
In short: as §1

DU-4475 [7] = test: as above
In short: as §1

HCC1143 [8] = test: as above
In short: as §1

HCC1599 [9] = test: as above
In short: as §1

HCC1937 [10] = test: as above
In short: as §1

HDQ-P1 [11] = test: as above
In short: as §1

Hs578T [12] = test: as above
In short: as §1

MCF-10A [13] = test: as above
In short: as §1

MDA-MB-231 [14] = test: as above
In short: as §1

MDA-MB-436 [15] = test: as above
In short: as §1

MDA-MB-453 [16] = test: as above
In short: as §1

MDA-MB-468 [17] = test: as above
In short: as §1

MFM-223 [18] = test: as above
In short: as §1

BT-474 [19] = test: normalised response (% of control), CellTiter-Glo; higher = more viable cells (100 = DMSO, 0 = benzethonium chloride kill control)
Procedure: (§2)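 DSRT, 72 h incubation, CellTox Green / CellTiter-Glo readout. Signal is normalised to DMSO and benzethonium chloride controls. Value is the normalised response at the highest dose.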

BT-549 [20] = test: as above
Procedure: as §2

CAL-120 [21] = test: as above
Procedure: as §2

CAL-148 [22] = test: as above
Procedure: as §2

CAL-51 [23] = test: as above
Procedure: as §2

CAL-85-1 [24] = test: as above
Procedure: as §2

DU-4475 [25] = test: as above
Procedure: as §2

HCC1143 [26] = test: as above
Procedure: as §2

HCC1599 [27] = test: as above
Procedure: as §2

HCC1937 [28] = test: as above
Procedure: as §2

HDQ-P1 [29] = test: as above
Procedure: as §2

Hs578T [30] = test: as above
Procedure: as §2

MCF-10A [31] = test: as above
Procedure: as §2

MDA-MB-231 [32] = test: as above
Procedure: as §2

MDA-MB-436 [33] = test: as above
Procedure: as §2

MDA-MB-453 [34] = test: as above
Procedure: as §2

MDA-MB-468 [35] = test: as above
Procedure: as §2

MFM-223 [36] = test: as above
Procedure: as §2

SK-BR-3 = test: as above
Procedure: as §2

Structure (SMILES): COc1cc2c(NC3CCN(C(C)C)CC3)nc(C3CCCCC3)nc2cc1OCCCN1CCCC1 [UNC0638] (10000 nM)
- normalised response (BT-474 [1]): -17.5%
- normalised response (BT-549 [2]): 17%
- normalised response (CAL-120 [3]): -29.4%
- normalised response (CAL-148 [4]): 2.74%
- normalised response (CAL-51 [5]): -16.4%
- normalised response (CAL-85-1 [6]): -10.2%
- normalised response (DU-4475 [7]): 88.3%
- normalised response (HCC1143 [8]): 94.9%
- normalised response (HCC1599 [9]): 62.2%
- normalised response (HCC1937 [10]): -27%
- normalised response (HDQ-P1 [11]): 58.6%
- normalised response (Hs578T [12]): 13.9%
- normalised response (MCF-10A [13]): -76.4%
- normalised response (MDA-MB-231 [14]): -58.7%
- normalised response (MDA-MB-436 [15]): 18.6%
- normalised response (MDA-MB-453 [16]): -11.5%
- normalised response (MDA-MB-468 [17]): -186%
- normalised response (MFM-223 [18]): 36.8%
- normalised response (BT-474 [19]): 2.59%
- normalised response (BT-549 [20]): 1.52%
- normalised response (CAL-120 [21]): 8.51%
- normalised response (CAL-148 [22]): 3.47%
- normalised response (CAL-51 [23]): 17%
- normalised response (CAL-85-1 [24]): 0.26%
- normalised response (DU-4475 [25]): 71.8%
- normalised response (HCC1143 [26]): 36.4%
- normalised response (HCC1599 [27]): 14%
- normalised response (HCC1937 [28]): 13.6%
- normalised response (HDQ-P1 [29]): 23.3%
- normalised response (Hs578T [30]): 51.9%
- normalised response (MCF-10A [31]): 0.31%
- normalised response (MDA-MB-231 [32]): 0.6%
- normalised response (MDA-MB-436 [33]): 7.47%
- normalised response (MDA-MB-453 [34]): 0.34%
- normalised response (MDA-MB-468 [35]): 0.31%
- normalised response (MFM-223 [36]): 3.95%
- normalised response (SK-BR-3): 2.89%

Structure (SMILES): CC[C@H](Nc1ncnc2[nH]cnc12)c1nc2cccc(F)c2c(=O)n1-c1ccccc1 [GS-1101] (10000 nM)
- normalised response (BT-474 [1]): 97.9%
- normalised response (BT-549 [2]): 114%
- normalised response (CAL-120 [3]): 98.2%
- normalised response (CAL-148 [4]): 79.9%
- normalised response (CAL-51 [5]): 107%
- normalised response (CAL-85-1 [6]): 96.4%
- normalised response (DU-4475 [7]): 95.5%
- normalised response (HCC1143 [8]): 99.5%
- normalised response (HCC1599 [9]): 93.5%
- normalised response (HCC1937 [10]): 94.4%
- normalised response (HDQ-P1 [11]): 61.4%
- normalised response (Hs578T [12]): 109%
- normalised response (MCF-10A [13]): 102%
- normalised response (MDA-MB-231 [14]): 86.4%
- normalised response (MDA-MB-436 [15]): 111%
- normalised response (MDA-MB-453 [16]): 73.4%
- normalised response (MDA-MB-468 [17]): 59.5%
- normalised response (MFM-223 [18]): 95.4%
- normalised response (BT-474 [19]): 71.4%
- normalised response (BT-549 [20]): 69.6%
- normalised response (CAL-120 [21]): 77.8%
- normalised response (CAL-148 [22]): 86%
- normalised response (CAL-51 [23]): 120%
- normalised response (CAL-85-1 [24]): 93.1%
- normalised response (DU-4475 [25]): 96.3%
- normalised response (HCC1143 [26]): 81.3%
- normalised response (HCC1599 [27]): 107%
- normalised response (HCC1937 [28]): 78.7%
- normalised response (HDQ-P1 [29]): 71.7%
- normalised response (Hs578T [30]): 76.5%
- normalised response (MCF-10A [31]): 63%
- normalised response (MDA-MB-231 [32]): 73.6%
- normalised response (MDA-MB-436 [33]): 59.8%
- normalised response (MDA-MB-453 [34]): 61.8%
- normalised response (MDA-MB-468 [35]): 64.7%
- normalised response (MFM-223 [36]): 77%
- normalised response (SK-BR-3): 62.9%

Structure (SMILES): C=CCc1cccc(/C=N/NC(=O)CN2CCN(Cc3ccccc3)CC2)c1O [PAC-1] (10000 nM)
- normalised response (BT-474 [1]): 74.2%
- normalised response (BT-549 [2]): 2.94%
- normalised response (CAL-120 [3]): 70.5%
- normalised response (CAL-148 [4]): 61.4%
- normalised response (CAL-51 [5]): 68.6%
- normalised response (CAL-85-1 [6]): 63.3%
- normalised response (DU-4475 [7]): 86.9%
- normalised response (HCC1143 [8]): 101%
- normalised response (HCC1599 [9]): 91%
- normalised response (HCC1937 [10]): 96%
- normalised response (HDQ-P1 [11]): 113%
- normalised response (Hs578T [12]): 116%
- normalised response (MCF-10A [13]): 99.2%
- normalised response (MDA-MB-231 [14]): 86.4%
- normalised response (MDA-MB-436 [15]): 103%
- normalised response (MDA-MB-453 [16]): 93.7%
- normalised response (MDA-MB-468 [17]): 65.4%
- normalised response (MFM-223 [18]): 103%
- normalised response (BT-474 [19]): 38.9%
- normalised response (BT-549 [20]): 34%
- normalised response (CAL-120 [21]): 34.8%
- normalised response (CAL-148 [22]): 26.6%
- normalised response (CAL-51 [23]): 5.5%
- normalised response (CAL-85-1 [24]): 21%
- normalised response (DU-4475 [25]): 9.69%
- normalised response (HCC1143 [26]): 41.4%
- normalised response (HCC1599 [27]): 33.4%
- normalised response (HCC1937 [28]): 27.7%
- normalised response (HDQ-P1 [29]): 61.4%
- normalised response (Hs578T [30]): 73.5%
- normalised response (MCF-10A [31]): 77.7%
- normalised response (MDA-MB-231 [32]): 45%
- normalised response (MDA-MB-436 [33]): 17.8%
- normalised response (MDA-MB-453 [34]): 26.4%
- normalised response (MDA-MB-468 [35]): 11.6%
- normalised response (MFM-223 [36]): 43.4%
- normalised response (SK-BR-3): 14.9%

Structure (SMILES): Cc1ccc(-c2cc(C(F)(F)F)nn2-c2ccc(S(N)(=O)=O)cc2)cc1 [Celecoxib] (10000 nM)
- normalised response (BT-474 [1]): 93%
- normalised response (BT-549 [2]): 113%
- normalised response (CAL-120 [3]): 101%
- normalised response (CAL-148 [4]): 101%
- normalised response (CAL-51 [5]): 107%
- normalised response (CAL-85-1 [6]): 104%
- normalised response (DU-4475 [7]): 99.5%
- normalised response (HCC1143 [8]): 68.4%
- normalised response (HCC1599 [9]): 103%
- normalised response (HCC1937 [10]): 116%
- normalised response (HDQ-P1 [11]): 105%
- normalised response (Hs578T [12]): 68.1%
- normalised response (MCF-10A [13]): 82.2%
- normalised response (MDA-MB-231 [14]): 104%
- normalised response (MDA-MB-436 [15]): 99.8%
- normalised response (MDA-MB-453 [16]): 99%
- normalised response (MDA-MB-468 [17]): 62.7%
- normalised response (MFM-223 [18]): 95.2%
- normalised response (BT-474 [19]): 92.9%
- normalised response (BT-549 [20]): 104%
- normalised response (CAL-120 [21]): 106%
- normalised response (CAL-148 [22]): 99.9%
- normalised response (CAL-51 [23]): 118%
- normalised response (CAL-85-1 [24]): 102%
- normalised response (DU-4475 [25]): 101%
- normalised response (HCC1143 [26]): 108%
- normalised response (HCC1599 [27]): 109%
- normalised response (HCC1937 [28]): 101%
- normalised response (HDQ-P1 [29]): 89.8%
- normalised response (Hs578T [30]): 97.3%
- normalised response (MCF-10A [31]): 108%
- normalised response (MDA-MB-231 [32]): 96.8%
- normalised response (MDA-MB-436 [33]): 104%
- normalised response (MDA-MB-453 [34]): 94.7%
- normalised response (MDA-MB-468 [35]): 103%
- normalised response (MFM-223 [36]): 93.5%
- normalised response (SK-BR-3): 97.4%
